Legend:
U-87 MG = test: Cancer cell viability assay (MTT), U-87 MG; type: cell-based; conditions: Homo sapiens, 72 hrs, 10% FBS media
Method: (§1) Breast cancer and glioblastoma cell lines were plated 4000 cells/well in 96-well plates in the presence of 10% FBS media. The following day cells were treated with various concentrations of the example compounds (0.1% DMSO final) and incubated for 72 hrs. After the incubation An MTT assay was performed to access cell viability. Percent of viability was determined using DMSO vehicle and no cell (blank) controls.

[1] = target: gluthathione reductase (GR) (Homo sapiens (Human), UniProt P00390); test: Inhibition of recombinant GR (GSSG assay); type: biochemical; conditions: 2 nM GR, 250 μM NADPH, 15 minutes incubation
Method: (§2) Small molecule inhibition of recombinant thioredoxin reductase 1 (TrxR1) and gluthathione reductase (GR) was examined in 96-well plate format. 30 nM TrxR1 was incubated in the presence of 250 μM NADPH, 0.1 mg/ml BSA, and various concentrations of compound (1% DMSO final) in 50 mM Tris (pH 7.5) and 2 mM EDTA buffer for 15 minutes. Following the incubation period, 2 mM DTNB was added to each well and the change in O.D. at 412 nm was followed. Percent activity was determined using DMSO vehicle and no TrxR1 (blank) controls. 2 nM GR was incubated in the presence of 250 μM NADPH, 0.1 mg/ml BSA, and various concentrations of compounds (1% DMSO final) in 50 mM Tris (pH 7.5) and 2 mM EDTA buffer for 15 minutes. Following the incubation period, 1 mM GSSG was added to each well and the change in O.D. at 340 nm was followed. Percent activity was determined using DMSO vehicle and no GR (blank) controls.

FaDu cells = test: Head and neck cancer cell viability assay (Cell-Quanti Blue); type: cell-based; conditions: Homo sapiens, 72 hrs, 10% FBS media containing 25 nM selenite
Method: (§3) FaDu cells were plated 2000 cells/well in 96-well black optical plates in the presence of 10% FBS media containing 25 nM selenite. The following day cells were treated with various concentrations of the compound of Example 1 (0.1% DMSO final) and incubated for 72 hrs. After the incubation Cell-Quanti Blue reagent was added to each well and incubated for additional 3 hrs. Fluorescence was read ex:530 nm/em:590 nm, and percent of viability was determined using DMSO vehicle and no cell (blank) controls.

[2] = target: recombinant thioredoxin reductase 1 (TrxR1) (Homo sapiens (Human), UniProt Q16881); test: Inhibition of recombinant TrxR1 (DTNB assay); type: biochemical; conditions: 30 nM TrxR1, 250 μM NADPH, 15 minutes incubation, read-out: TrxR Assay IC50
Method: as §2

MDA-MB-231 cells = test: Breast cancer cell viability assay (Alamar Blue); type: cell-based; conditions: Homo sapiens, 72 hrs, 10% FBS media containing 25 nM selenite
Method: as §3, with “MDA-MB-231” for “FaDu”, “compounds” for “the compound of Example 1”, “Alamar” for “Cell-Quanti”

MDA-MB-231 = test: Cancer cell viability assay (MTT), MDA-MB-231; type: cell-based; conditions: Homo sapiens, 72 hrs, 10% FBS media
Method: as §1

MDA-MB-468 = test: Cancer cell viability assay (MTT), MDA-MB-468; type: cell-based; conditions: Homo sapiens, 72 hrs, 10% FBS media
Method: as §1

Sequence of recombinant thioredoxin reductase 1 (TrxR1) (Q16881 151-649): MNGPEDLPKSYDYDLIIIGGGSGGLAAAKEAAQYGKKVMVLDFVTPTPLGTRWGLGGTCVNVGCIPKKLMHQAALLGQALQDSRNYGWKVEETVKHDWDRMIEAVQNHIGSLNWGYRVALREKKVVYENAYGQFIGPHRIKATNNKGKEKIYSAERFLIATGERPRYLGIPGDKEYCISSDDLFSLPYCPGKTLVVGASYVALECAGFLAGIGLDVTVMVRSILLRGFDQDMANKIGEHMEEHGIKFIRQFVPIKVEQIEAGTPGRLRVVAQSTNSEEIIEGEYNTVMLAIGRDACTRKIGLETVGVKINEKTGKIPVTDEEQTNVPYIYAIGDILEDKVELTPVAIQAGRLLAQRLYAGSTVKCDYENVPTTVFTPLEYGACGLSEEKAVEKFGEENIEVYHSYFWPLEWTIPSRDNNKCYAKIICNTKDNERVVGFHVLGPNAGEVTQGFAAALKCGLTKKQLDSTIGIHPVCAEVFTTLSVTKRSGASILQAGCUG
Sequence of gluthathione reductase (GR) (P00390 44-522): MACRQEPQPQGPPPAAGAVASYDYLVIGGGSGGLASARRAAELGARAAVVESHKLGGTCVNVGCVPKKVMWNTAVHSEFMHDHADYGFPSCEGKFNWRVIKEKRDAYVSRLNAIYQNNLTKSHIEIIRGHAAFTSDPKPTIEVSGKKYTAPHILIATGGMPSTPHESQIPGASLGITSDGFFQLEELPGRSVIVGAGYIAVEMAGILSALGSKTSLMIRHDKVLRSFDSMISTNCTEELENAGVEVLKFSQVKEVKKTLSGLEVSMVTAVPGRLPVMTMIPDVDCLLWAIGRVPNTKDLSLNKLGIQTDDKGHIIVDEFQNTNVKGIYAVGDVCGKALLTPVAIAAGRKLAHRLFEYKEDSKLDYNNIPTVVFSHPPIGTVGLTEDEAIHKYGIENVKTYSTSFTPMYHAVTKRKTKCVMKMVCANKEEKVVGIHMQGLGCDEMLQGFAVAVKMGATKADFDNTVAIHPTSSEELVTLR

Compound: COc1ccc([N+](=O)[O-])c(S(=O)(=O)Cc2ccccc2)n1 [Example 1, 2-Benzylsulfonyl-6-methoxy-3-nitropyridine]
- IC50 (U-87 MG): 6.11 µM
- IC50 [1]: > 100 µM
- IC50 (FaDu cells): 280 nM
- IC50 [2]: 18.2 nM
- IC50 (MDA-MB-231 cells): 3.81 µM
- IC50 (MDA-MB-231): 1800 nM
- IC50 (MDA-MB-468): 2890 nM

From US11161815B2, “Hydrocarbylsulfonyl-substituted pyridines and their use in the treatment of cancer” (Oblique Therapeutics AB, priority 2017, dated 2021)
